Seven compounds from US12421253B2 (Mirati Therapeutics, Inc., priority 2020, dated 2025) can be followed below.

Assay [1] deals with T1, KRas^WT (Homo sapiens, UniProt P01116).
T1 construct: […]; biotin (biotinylated); purchased Accelegan Inc
Description: KRas binding assay (TR-FRET displacement of Cy5 labelled tracer). Background: TR-FRET usually uses a lanthanide donor and a delayed reading to cut background.
Description: (§3) The ability of a compound to bind to KRas was measured using a TR-FRET displacement assay. […] After a 60-minute incubation at room temperature, the reaction was measured using a BMG LABTECH CLARIO star Plus via TR-FRET. […] The POC values were fit to a 4-parameter IC50 equation and the IC50 value reported.

Assay [2] addresses T2, KRas^G12A (Homo sapiens, UniProt P01116, G12A).
T2 construct: […]; biotin (biotinylated); purchased Accelegan Inc
The description is as above.
Description: as §3

Assay [3] addresses T3, KRas^G12D (Homo sapiens, UniProt P01116, G12D).
T3 construct: […]; biotin (biotinylated); purchased Accelegan Inc
Described as above.
Description: as §3

The target in assay [4] is T4, KRas^G12R (Homo sapiens, UniProt P01116, G12R).
T4 construct: […]; biotin (biotinylated); purchased Accelegan Inc
Described as above.
Description: as §3

In assay [5] the target is T5, KRas^G12S (Homo sapiens, UniProt P01116, G12S).
T5 construct: […]; biotin (biotinylated); purchased Accelegan Inc
Described as above.
Description: as §3

The target of assay [6] is T6, KRas^G12V (Homo sapiens, UniProt P01116, G12V).
T6 construct: […]; biotin (biotinylated); purchased Accelegan Inc
The assay is described as above.
Description: as §3

Assay [7] relates to A549 (G12S) cells, phospho-ERK. Description: Inhibition of KRas-mediated phosphorylation of ERK (phospho-ERK/GAPDH antibody detection, LI-COR). Conditions: Homo sapiens, 3 hours. Type of assay: cell-based. The essentials:
(§1)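 Cells seeded 20,000/well, attached 12-14 h, then compound (0.5% DMSO) for 3 h. Formaldehyde-fixed, methanol-permeabilized cells stained for phospho-ERK (Thr202/Tyr204) and GAPDH; infrared imaging. Ratio expressed as % of DMSO control; IC50 from 4-parameter fit.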

For assay [8], the system named is AsPC-1 (G12D) cells, phospho-ERK. Described as above. Type of assay: cell-based. Conditions: Homo sapiens, ASPC1, 3 hours. The essentials:
as §1

For assay [9], the system named is HCT116 (G13D) cells, phospho-ERK. The description is as above. The settings on record: Homo sapiens, HCT-116, 3 hours. Type of assay: cell-based. The essentials:
as §1

Assay [10] deals with NCI-H358 (G12C) cells, phospho-ERK. The description is as above. Type of assay: cell-based. Conditions: Homo sapiens, 3 hours. The essentials:
as §1

The test system of assay [11] is NCI-H460 (Q61H) cells, phospho-ERK. Described as above. Type of assay: cell-based. The settings on record: Homo sapiens, 3 hours. The essentials: as §1
Assay [12] concerns NCI-H727 (G12V) cells, phospho-ERK. The assay is described as above. Type of assay: cell-based. The settings on record: Homo sapiens, 3 hours. The essentials:
as §1

For assay [13], the system named is PSN-1 (G12R) cells, phospho-ERK. Described as above. The settings on record: Homo sapiens, PSN1, 3 hours. Type of assay: cell-based. The essentials:
as §1

Assay [14] concerns the target KRas^G12C (Homo sapiens, UniProt P01116, G12C). Kind of assay: biochemical.
Description: as §3
In assay [15] the target is KRas^G13D (Homo sapiens, UniProt P01116, G13D). Kind of assay: biochemical.
Description: as §3
In assay [16] the target is KRas^Q61H (Homo sapiens, UniProt P01116, Q61H). Kind of assay: biochemical.
Description: as §3
Assay [17] relates to A549 cells, pERK. Kind of assay: Inhibition of KRas phosphorylation of ERK (Cisbio HTRF Advanced pERK assay). The settings on record: Homo sapiens, 3 hrs, read-out: Inhibition (HTRF IC50 nM) of KRas-mediated Phosphorylation of ERK, A549. Type of assay: cell-based. The essentials: (§2)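 Cells seeded at 6,000/well in RPMI with 10% FBS, grown overnight at 37 °C, then exposed 3 h to 10-dose 3-fold compound series from 10 uM (0.8% DMSO final); 0.2 uM trametinib as minimum control. Lysates read for pERK by HTRF after 2 h antibody incubation at room temperature.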

Assay [18] deals with ASPC1 cells, pERK. Described as above. Type of assay: cell-based. Conditions: Homo sapiens, ASPC1, 3 h, AsPC-1 cells, read-out: Inhibition (HTRF IC50 nM) of KRas-mediated Phosphorylation of ERK, AsPC-1. The essentials:
as §2

In assay [19] the test system is H358 cells, pERK. The assay is described as above. Type of assay: cell-based. Conditions: Homo sapiens, NCI-H358, 3 hrs, read-out: Inhibition (HTRF IC50 nM) of KRas-mediated Phosphorylation of ERK, H358. The essentials: as §2
Assay [20] deals with H460 cells, pERK. Described as above. Type of assay: cell-based. The settings on record: Homo sapiens, NCI-H460, 3 hrs, read-out: Inhibition (HTRF IC50 nM) of KRas-mediated Phosphorylation of ERK, H460. The essentials: as §2
Assay [21] relates to H727 cells, pERK. The assay is described as above. Type of assay: cell-based. Conditions: Homo sapiens, NCI-H727, 3 h, read-out: Inhibition (HTRF IC50 nM) of KRas-mediated Phosphorylation of ERK, H727. The essentials:
as §2

For assay [22], the system named is HCT116 cells, pERK. The description is as above. Type of assay: cell-based. Conditions: Homo sapiens, HCT-116, 3 hrs, read-out: Inhibition (HTRF IC50 nM) of KRas-mediated Phosphorylation of ERK, HCT116. The essentials: as §2
The test system of assay [23] is MKN1 cells, pERK. Described as above. Conditions: Homo sapiens, MKN-1, 3 h, read-out: Inhibition (HTRF IC50 nM) of KRas-mediated Phosphorylation of ERK, MKN1. Type of assay: cell-based. The essentials: as §2
Assay [24] deals with PSN1 cells, pERK. The assay is described as above. Conditions: Homo sapiens, PSN1, 3 h, read-out: Inhibition (HTRF IC50 nM) of KRas-mediated Phosphorylation of ERK, PSN1. Type of assay: cell-based. The essentials: as §2

T3 sequence (P01116 1-169 isoform P01116-2 G12D): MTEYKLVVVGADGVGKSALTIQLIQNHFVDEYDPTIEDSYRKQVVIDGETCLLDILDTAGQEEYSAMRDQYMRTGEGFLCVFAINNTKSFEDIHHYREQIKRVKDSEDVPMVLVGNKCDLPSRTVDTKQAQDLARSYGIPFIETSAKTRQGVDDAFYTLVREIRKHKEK
T6 sequence (P01116 1-169 isoform P01116-2 G12V): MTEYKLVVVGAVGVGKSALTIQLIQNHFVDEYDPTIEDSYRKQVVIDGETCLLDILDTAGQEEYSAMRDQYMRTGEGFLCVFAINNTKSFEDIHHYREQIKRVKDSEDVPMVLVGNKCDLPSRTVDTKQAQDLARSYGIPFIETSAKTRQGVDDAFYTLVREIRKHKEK
T4 sequence (P01116 1-169 isoform P01116-2 G12R): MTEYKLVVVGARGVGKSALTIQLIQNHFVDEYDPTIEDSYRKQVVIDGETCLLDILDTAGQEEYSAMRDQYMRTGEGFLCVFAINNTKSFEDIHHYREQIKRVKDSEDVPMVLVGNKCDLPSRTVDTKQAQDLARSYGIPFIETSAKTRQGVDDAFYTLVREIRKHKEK
KRas^Q61H, sequence (P01116 1-169 isoform P01116-2 Q61H): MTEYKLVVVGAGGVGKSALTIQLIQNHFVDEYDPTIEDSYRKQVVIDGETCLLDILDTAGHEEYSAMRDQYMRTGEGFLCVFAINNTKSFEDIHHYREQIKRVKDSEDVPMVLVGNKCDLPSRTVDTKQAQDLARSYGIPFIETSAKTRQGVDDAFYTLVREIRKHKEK
KRas^G13D, sequence (P01116 1-169 isoform P01116-2 G13D): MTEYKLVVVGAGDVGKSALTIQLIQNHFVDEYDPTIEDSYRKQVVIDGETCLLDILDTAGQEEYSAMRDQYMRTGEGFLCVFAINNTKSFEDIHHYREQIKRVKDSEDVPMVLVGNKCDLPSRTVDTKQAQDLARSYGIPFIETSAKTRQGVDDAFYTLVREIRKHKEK
KRas^G12C, sequence (P01116 1-169 isoform P01116-2 G12C): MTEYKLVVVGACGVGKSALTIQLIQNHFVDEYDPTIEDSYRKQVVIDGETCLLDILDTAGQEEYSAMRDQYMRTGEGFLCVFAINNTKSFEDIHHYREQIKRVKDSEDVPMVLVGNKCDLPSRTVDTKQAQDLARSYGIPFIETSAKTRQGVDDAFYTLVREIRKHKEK
T2 sequence (P01116 1-169 isoform P01116-2 G12A): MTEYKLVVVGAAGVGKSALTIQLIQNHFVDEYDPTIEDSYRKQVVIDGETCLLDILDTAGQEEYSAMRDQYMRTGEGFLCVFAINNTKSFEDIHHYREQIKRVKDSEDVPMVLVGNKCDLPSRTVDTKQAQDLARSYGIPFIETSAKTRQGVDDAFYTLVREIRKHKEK
T5 sequence (P01116 1-169 isoform P01116-2 G12S): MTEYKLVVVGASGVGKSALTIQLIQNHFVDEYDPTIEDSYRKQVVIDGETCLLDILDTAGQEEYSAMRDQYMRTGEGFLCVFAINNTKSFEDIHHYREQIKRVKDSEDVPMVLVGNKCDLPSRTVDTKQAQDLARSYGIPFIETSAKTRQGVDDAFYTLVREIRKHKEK
T1 sequence (P01116 1-169 isoform P01116-2): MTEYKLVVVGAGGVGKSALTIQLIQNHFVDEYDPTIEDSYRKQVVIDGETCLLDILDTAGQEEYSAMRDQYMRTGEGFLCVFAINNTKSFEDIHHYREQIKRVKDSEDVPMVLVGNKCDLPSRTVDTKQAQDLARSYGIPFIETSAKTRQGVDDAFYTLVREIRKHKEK

In general, IC50 refers to the point on the concentration scale where inhibition reaches its midpoint. As to `CCc1c(F)ccc2cc(O)cc(N3CCc4c(nc(OCC56CCCN5CCC6)nc4N4CCC[C@@](C)(O)C4)C3)c12` [Example 1, (R)-1-(7-(8-ethyl-7-fluoro-3-hydroxynaphthalen-1-yl)-2-((hexahydro-1H-pyrrolizin-7a-yl)methoxy)-5,6,7,8-tetrahydropyrido[3,4-d]pyrimidin-4-yl)-3-methylpiperidin-3-ol], the IC50 in assay [1], in assay [2], in assay [3], in assay [4], in [5] and in assay [6] was at most 0.002 µM throughout. The IC50 in [7] came to 1020 nM; in assay [8], 398 nM; in assay [9] it was 601 nM; in assay [10], 236 nM; in assay [11] it was 357 nM; in assay [12], 1260 nM. Further, the IC50 in [13] was 1400 nM; in [14], at most 0.002 µM; in [15] it was at most 0.002 µM; in assay [16] it was at most 0.002 µM.

As for `CCc1c(F)ccc2cc(O)cc(N3CCc4c(nc(OC[C@@]56CCCN5C[C@H](F)C6)nc4N4CCCC5(C4)NC(=O)NC5=O)C3)c12` (stereo partly drawn) [Example 59, 7-(7-(8-ethyl-7-fluoro-3-hydroxynaphthalen-1-yl)-2-(((2R,7aS)-2-fluorohexahydro-1H-pyrrolizin-7a-yl)methoxy)-5,6,7,8-tetrahydropyrido[3,4-d]pyrimidin-4-yl)-1,3,7-triazaspiro[4.5]decane-2,4-dione], the IC50 is at most 0.002 µM in assay [3]; at most 0.002 µM in assay [4]; at most 0.002 µM in [6]; 44 nM in assay [8]; 17 nM in [11]; 181 nM in [12]. In addition, the IC50 in assay [17] is 3 nM; in assay [18] it was 8 nM; in assay [19], 4 nM; in assay [20], 9 nM; in [21], 40 nM; in assay [22], 16 nM. The IC50 amounted to 5 nM in assay [23] and 25.3 nM in assay [24].

Take `CCc1c(F)ccc2cc(O)cc(N3CCc4c(nc(OC[C@@]56CCCN5C[C@H](F)C6)nc4N4CCOCC(C)(O)C4)C3)c12` (stereo partly drawn) [Example 20, 4-(7-(8-ethyl-7-fluoro-3-hydroxynaphthalen-1-yl)-2-(((2R,7aS)-2-fluorohexahydro-1H-pyrrolizin-7a-yl)methoxy)-5,6,7,8-tetrahydropyrido[3,4-d]pyrimidin-4-yl)-6-methyl-1,4-oxazepan-6-ol]: the IC50 was at most 0.002 µM in assay [3]; 0.052 µM in [4]; at most 0.002 µM in [6]; 446 nM in assay [7]; 860 nM in assay [9]; 314 nM in assay [10]. The IC50 was 747 nM in [12] and above 10000 nM in assay [13].

For the compound `CCc1c(F)ccc2cc(O)cc(N3CCc4c(nc(OC[C@@]56CCCN5C[C@H](F)C6)nc4NCc4cccnc4N)C3)c12` [Example 17, 4-(4-(((2-aminopyridin-3-yl)methyl)amino)-2-(((2R,7aS)-2-fluorohexahydro-1H-pyrrolizin-7a-yl)methoxy)-5,6-dihydropyrido[3,4-d]pyrimidin-7(8H)-yl)-5-ethyl-6-fluoronaphthalen-2-ol], the IC50 in assay [3] was 0.026 µM; in [4], at most 0.002 µM; in [6] it was at most 0.002 µM; in assay [7], 189 nM; in [9], 10000 nM; in assay [10] it was 232 nM. Moreover, the figures for the IC50 in assay [12] and in assay [13] were 1130 nM and above 10000 nM, respectively.

Regarding `CCc1c(F)ccc2cc(O)cc(N3CCc4c(nc(OCC56CCCN5CCC6)nc4N4CCCn5nc(C(=O)N(C)C)cc5C4)C3)c12` [Example 175, 5-[7-(8-ethyl-7-fluoro-3-hydroxy-1-naphthyl)-2-(1,2,3,5,6,7-hexahydropyrrolizin-8-ylmethoxy)-6,8-dihydro-5H-pyrido[3,4-d]pyrimidin-4-yl]-N,N-dimethyl-4,6,7,8-tetrahydropyrazolo[1,5-a][1,4]diazepine-2-carboxamide], the IC50 in assay [3] is at most 0.002 µM; in assay [4] it was at most 0.002 µM; in [6], at most 0.002 µM; in assay [17], 326 nM; in [18], 53 nM; in [19], 50 nM. Besides, the IC50 in assay [20] was found to be 750 nM; in assay [21] it was 85 nM; in [22], 1120 nM; in assay [23] it was 58 nM; in [24], 7860 nM.

In the case of `CCc1c(F)ccc2cc(O)cc(N3CCc4c(nc(OC[C@@]56CCCN5C[C@H](F)C6)nc4N4CCCn5nc(CO)cc5C4)C3)c12` [Example 34, 5-ethyl-6-fluoro-4-(2-(((2R,7aS)-2-fluorohexahydro-1H-pyrrolizin-7a-yl)methoxy)-4-(2-(hydroxymethyl)-7,8-dihydro-4H-pyrazolo[1,5-a][1,4]diazepin-5(6H)-yl)-5,6-dihydropyrido[3,4-d]pyrimidin-7(8H)-yl)naphthalen-2-ol], the IC50 in [3] is at most 0.002 µM; in assay [4], at most 0.002 µM; in [6], at most 0.002 µM; in assay [8], 258 nM; in assay [11] it was 774 nM; in [12] it was 1040 nM. The IC50 in [17] worked out at 351 nM; in [18], 31 nM; in [19] it was 38 nM; in assay [20] it was 784 nM; in assay [21], 217 nM; in [22], 1270 nM. The IC50 in assay [23] is 134 nM; in assay [24], at least 10000 nM.

For `O=S1(=O)NCC2(CCCN(c3nc(OC[C@@]45CCCN4C[C@H](F)C5)nc4c3CCN(c3cc(O)cc5ccc(F)c(Cl)c35)C4)C2)N1` (stereo partly drawn) [Example 72, 7-(7-(8-chloro-7-fluoro-3-hydroxynaphthalen-1-yl)-2-(((2R,7aS)-2-fluorohexahydro-1H-pyrrolizin-7a-yl)methoxy)-5,6,7,8-tetrahydropyrido[3,4-d]pyrimidin-4-yl)-2-thia-1,3,7-triazaspiro[4.5]decane 2,2-dioxide], the IC50 in assay [3] is at most 0.002 µM; in assay [4], at most 0.002 µM; in assay [6], at most 0.002 µM; in assay [17] it was 32 nM; in assay [18], 10 nM; in [19], 8 nM. Besides, the IC50 in assay [20] was 59 nM; in [21], 59 nM; in assay [22] it was 126 nM; in [23], 7 nM; in assay [24], 148 nM.
